Measurements reported in PubChem BioAssay (NCI).
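In this assay, cells in 96-well plates receive the compound at five concentrations for 48 hours. Endpoints are linearly interpolated between the surrounding concentrations. The concentration for 50% growth inhibition is given as GI50. TGI is the concentration that stops growth completely.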

Columns and labels:
Experiment in all cases: growth of human tumour cells (NCI), 48 h
[1] = system: 786-0 renal
[2] = system: A498 renal
[3] = system: A549 NSCLC
[4] = system: ACHN renal
[5] = system: BT-549 breast
[6] = system: CAKI-1 renal
[7] = system: CCRF-CEM leukemia
[8] = system: COLO 205 colon
[9] = system: DU-145 prostate
[10] = system: EKVX NSCLC
[11] = system: HCC-2998 colon
[12] = system: HCT-116 colon
[13] = system: HCT-15 colon
[14] = system: HL-60(TB) leukemia
[15] = system: HOP-62 NSCLC
[16] = system: HOP-92 NSCLC
[17] = system: HS 578T breast
[18] = system: HT29 colon
[19] = system: IGROV1 ovarian
[20] = system: K-562 leukemia
[21] = system: KM12 colon
[22] = system: LOX IMVI melanoma
[23] = system: M14 melanoma
[24] = system: MALME-3M melanoma
[25] = system: MCF7 breast
[26] = system: MDA-MB-231 breast
[27] = system: MDA-MB-435
[28] = system: MOLT-4 leukemia
[29] = system: NCI-H226 lung
[30] = system: NCI-H23 lung
[31] = system: NCI-H460 lung
[32] = system: NCI-H522 lung
[33] = system: NCI/ADR-RES ovarian
[34] = system: OVCAR-3 ovarian
[35] = system: OVCAR-4 ovarian
[36] = system: OVCAR-5 ovarian
[37] = system: OVCAR-8 ovarian
[38] = system: PC-3 prostate
[39] = system: RPMI-8226 leukemia
[40] = system: RXF 393 renal
[41] = system: SF-268 CNS
[42] = system: SF-295 CNS
[43] = system: SF-539 CNS
[44] = system: SK-MEL-2 melanoma
[45] = system: SK-MEL-28 melanoma
[46] = system: SK-MEL-5 melanoma
[47] = system: SK-OV-3 ovarian
[48] = system: SN12C renal
[49] = system: SNB-19 CNS
[50] = system: SNB-75 CNS
[51] = system: SR leukemia
[52] = system: SW-620 colon
[53] = system: T-47D breast
[54] = system: TK-10 renal
[55] = system: U251 CNS
[56] = system: UACC-257 melanoma
[57] = system: UACC-62 melanoma
[58] = system: UO-31 renal

## COc1cc2c(cc1I)-c1c(cc(OC)c(OC)c1OC)CC[C@@H]2NC(C)=O
[1]
  GI50: 434 nM
  TGI: 9260 nM
[2]
  GI50: 231 nM
  TGI: 725 nM
[3]
  GI50: 577 nM
  TGI: > 51900 nM
[4]
  GI50: 614 nM
  TGI: 33800 nM
[5]
  GI50: 691 nM
  TGI: 3160 nM
[6]
  GI50: 522 nM
  TGI: > 47000 nM
[7]
  GI50: 411 nM
  TGI: > 100000 nM
[8]
  GI50: 314 nM
  TGI: 1360 nM
[9]
  GI50: 317 nM
  TGI: 1030 nM
[10]
  GI50: 2550 nM
  TGI: > 100000 nM
[11]
  GI50: 664 nM
  TGI: 6310 nM
[12]
  GI50: 384 nM
  TGI: 7140 nM
[13]
  GI50: 419 nM
  TGI: 16800 nM
[14]
  GI50: 461 nM
[15]
  GI50: 556 nM
  TGI: > 33000 nM
[16]
  GI50: 987 nM
  TGI: 10700 nM
[17]
  GI50: 207 nM
  TGI: 593 nM
[18]
  GI50: 294 nM
  TGI: 2670 nM
[19]
  GI50: 323 nM
  TGI: 5430 nM
[20]
  GI50: 385 nM
  TGI: 17800 nM
[21]
  GI50: 390 nM
  TGI: 5600 nM
[22]
  GI50: 573 nM
  TGI: 18700 nM
[23]
  GI50: 283 nM
  TGI: 2650 nM
[24]
  GI50: 383 nM
  TGI: 32000 nM
[25]
  GI50: 370 nM
  TGI: 20800 nM
[26]
  GI50: 834 nM
  TGI: 7210 nM
[27]
  GI50: 213 nM
  TGI: 550 nM
[28]
  GI50: 672 nM
  TGI: 25800 nM
[29]
  GI50: 1460 nM
  TGI: 22000 nM
[30]
  GI50: 413 nM
  TGI: 5650 nM
[31]
  GI50: 374 nM
  TGI: 3900 nM
[32]
  GI50: 178 nM
  TGI: 689 nM
[33]
  GI50: 985 nM
  TGI: 6180 nM
[34]
  GI50: 232 nM
  TGI: 572 nM
[35]
  GI50: 2240 nM
  TGI: > 100000 nM
[36]
  GI50: 573 nM
  TGI: 39100 nM
[37]
  GI50: 526 nM
  TGI: 14200 nM
[38]
  GI50: 464 nM
  TGI: > 42200 nM
[39]
  GI50: 505 nM
  TGI: > 100000 nM
[40]
  GI50: 211 nM
  TGI: 569 nM
[41]
  GI50: 424 nM
  TGI: 6540 nM
[42]
  GI50: 299 nM
  TGI: 3410 nM
[43]
  GI50: 239 nM
  TGI: 737 nM
[44]
  GI50: 235 nM
  TGI: 858 nM
[45]
  GI50: 344 nM
  TGI: 19100 nM
[46]
  GI50: 290 nM
  TGI: 1100 nM
[47]
  GI50: 416 nM
  TGI: 12600 nM
[48]
  GI50: 589 nM
  TGI: 52000 nM
[49]
  GI50: 485 nM
  TGI: > 41000 nM
[50]
  GI50: 388 nM
  TGI: 32600 nM
[51]
  GI50: 391 nM
  TGI: 34600 nM
[52]
  GI50: 312 nM
  TGI: 42200 nM
[53]
  GI50: 366 nM
  TGI: > 100000 nM
[54]
  GI50: 607 nM
  TGI: 27300 nM
[55]
  GI50: 412 nM
  TGI: 12200 nM
[56]
  GI50: 415 nM
  TGI: 60000 nM
[57]
  GI50: 528 nM
  TGI: 30300 nM
[58]
  GI50: 517 nM
  TGI: > 36800 nM
